{"source": "patent US10307587B2", "about": "“Methods and devices for treating the skin” (VOMARIS INNOVATIONS, INC., priority 2014, dated 2019)", "key": {"[1]": {"tested_on": "HUVEC cells", "test": "EF-induced reorientation of endothelial cells (orientation index Oi)", "type": "cell-based, human", "settings": "for orientation response / reorientation of cells in an EF: drug 50 μM, 1 hour before and during EF exposure", "method": "HUVEC cells were seeded in a trough formed by two parallel (1 cm apart) strips of glass coverslip (No. 1, length of 22 mm) fixed to the base of the dish with silicone grease. Scratch lines were made perpendicular to the long axis of the chamber with a fine sterile needle and used as reference marks for directed cell migration. Cells were incubated for 24-48 hours (37° C., 5% CO2) before a roof coverslip was applied and sealed with silicone grease. The final dimensions of the chamber, through which current was passed, were 22×10×0.2 mm. Agar-salt bridges not less than 15 cm long were used to connect silver/silver-chloride electrodes in beakers of Steinberg's solution (58 mM NaCl, 0.67 mM KCl, 0.44 mM Ca(NO3)2, 1.3 mM MgSO4, 4.6 mM Trizma base, pH 7.8-8.0), to pools of excess culture medium at either side of the chamber. Field strengths were measured directly at the beginning of, the end of and during each experiment. No fluctuations in field strength were observed. […] (50 μM), the Rho kinase inhibitor Y27632 (50 μM), both Akt and Rho kinase inhibitors (10 μM each) or latrunculin (50 nM) for 1 hour before EF stimulation. The same concentration of drug was present during EF exposure in a CO2 incubator.\nA series of images was taken with an image analyser immediately before EF exposure and at 4, 8 and 24 hours of EF exposure. Cell orientation was quantified as an orientation index (Oi), which is defined as Oi=cos 2(α), where α is the angle formed by the long axis of a cell with a line drawn perpendicular to the field lines. A cell with its long axis parallel to the vector of the EF will have an Oi of −1, and a cell with its long axis exactly perpendicular to the EF vector will have an Oi of +1. […] The significance of this two-dimensional orientation distribution against randomness was calculated using Rayleigh's distribution. A long:short axis ratio was calculated for assessment of elongation.\nCell alignment was quantified using an orientation index Oi=cos 2(α), where α is the angle formed between the long axis of a cell and a line drawn perpendicular to the field lines. […]"}, "[2]": {"tested_on": "HUVEC cells", "test": "EF-induced elongation of endothelial cells (long:short axis ratio)", "type": "cell-based, human", "settings": "drug 50 μM", "description": "HUVEC cells were seeded in a trough formed by two parallel (1 cm apart) strips of glass coverslip (No. 1, length of 22 mm) fixed to the base of the dish with silicone grease. Scratch lines were made perpendicular to the long axis of the chamber with a fine sterile needle and used as reference marks for directed cell migration. Cells were incubated for 24-48 hours (37° C., 5% CO2) before a roof coverslip was applied and sealed with silicone grease. The final dimensions of the chamber, through which current was passed, were 22×10×0.2 mm. […] Field strengths were measured directly at the beginning of, the end of and during each experiment. […]\nA series of images was taken with an image analyser immediately before EF exposure and at 4, 8 and 24 hours of EF exposure. Cell orientation was quantified as an orientation index (Oi), which is defined as Oi=cos 2(α), where α is the angle formed by the long axis of a cell with a line drawn perpendicular to the field lines. […] The significance of this two-dimensional orientation distribution against randomness was calculated using Rayleigh's distribution. A long:short axis ratio was calculated for assessment of elongation.\nHUVEC cells elongated dramatically in an EF. […] We quantified the elongation of the cells using a long:short axis ratio. […]"}, "[3]": {"tested_on": "Human keratinocytes", "test": "in vitro scratch assay (cell migration)", "type": "cell-based", "settings": "for increased keratinocyte migration observed with LLEC, under N-acetyl cysteine: 5 mM, pretreated 1 h before scratch assay", "text": "The in vitro scratch assay is an easy, low-cost and well-developed method to measure cell migration in vitro. The basic steps involve creating a “scratch” in a cell monolayer, capturing images at the beginning and at regular intervals during cell migration to close the scratch, and comparing the images to quantify the migration rate of the cells. Compared to other methods, the in vitro scratch assay is particularly suitable for studies on the effects of cell-matrix and cell-cell interactions on cell migration, mimic cell migration during wound healing in vivo and are compatible with imaging of live cells during migration to monitor intracellular events if desired. In addition to monitoring migration of homogenous cell populations, this method has also been adopted to measure migration of individual cells in the leading edge of the scratch. Not taking into account the time for transfection of cells, in vitro scratch assay per se usually takes from several hours to overnight.\nHuman keratinocytes were plated under plated under placebo or a LLEC system (labeled “PROCELLERA®”). Cells were also plated under silver-only or zinc-only dressings. After 24 hours, the scratch assay was performed.\nMeasurement of the potential difference between adjacent zinc and silver dots when the LLEC is in contact with de-ionized water yielded a value of about 0.2 Volts. Though the potential difference between zinc and silver dots can be measured, non-intrusive measurement of the electric field arising from contact between the LLEC and liquid medium was difficult. Keratinocyte migration was accelerated by exposure to an Ag/Zn LLEC.\nScratch assay—A cell migration assay was performed using culture inserts (IBIDI®, Verona, Wis.) according to the manufacturers instructions. Cell migration was measured using time-lapse phase-contrast microscopy following withdrawal of the insert. Images were analyzed using the AxioVision Rel 4.8 software.\nN-Acetyl Cysteine Treatment—Cells were pretreated with 5 mM of the thiol antioxidant N-acetylcysteine (Sigma) for 1 h before start of the scratch assay. […]"}}, "data": [{"molecule": "1-L-6-hydroxymethyl-chiro-inositol 2-[(R)-2-O-methyl-3-O-octadecylcarbonate] [Akt inhibitor]", "values": [{"measurement": "orientation response / reorientation of cells in an EF", "setting": "[1]", "value": "significantly decreased"}, {"measurement": "long:short axis ratio in EF-treated cells", "setting": "[2]", "value": "significantly decreased"}]}, {"molecule": "COc1cc([C@@H]2c3cc4c(cc3[C@H](O)[C@H]3COC(=O)[C@@H]23)OCO4)cc(OC)c1OC", "note": "[IGF-1R inhibitor, picropodophyllin]", "values": [{"measurement": "increased keratinocyte migration observed with LLEC, under IGF-1R inhibitor", "setting": "[3]; 50 nM picropodophyllin just prior to scratch assay", "value": "attenuated the increased keratinocyte migration"}]}, {"molecule": "CC(=O)N[C@@H](CS)C(=O)O", "note": "[N-Acetyl Cysteine, N-acetylcysteine]", "values": [{"measurement": "increased keratinocyte migration observed with LLEC, under N-acetyl cysteine", "setting": "[3]", "value": "failed to reproduce the increased migration"}, {"measurement": "increased keratinocyte migration observed with LLEC, under N-acetyl cysteine", "setting": "[3]; listed as N-acetyl cysteine", "value": "prevented"}]}, {"molecule": "N#CC(=C(/N)Sc1ccccc1N)/C(C#N)=C(\\N)Sc1ccccc1N", "note": "[U0126]", "values": [{"measurement": "Oi", "setting": "[1]", "value": "0.33±0.03"}]}, {"molecule": "COc1cc2ncnc(Nc3ccc(Cl)cc3F)c2cc1OC", "note": "[VEGFR inhibitor, 4-[(4′-chloro-2′-fluoro)phenylamino]-6,7-dimethoxyquinazoline]", "values": [{"measurement": "orientation response / reorientation of cells in an EF", "setting": "[1]", "value": "completely abolished"}]}, {"molecule": "C[C@@H](N)[C@H]1CC[C@H](C(=O)Nc2ccncc2)CC1", "note": "[Y27632]", "values": [{"measurement": "long:short axis ratio in EF-treated cells", "setting": "[2]", "value": "significantly decreased"}]}]}
